In US9862678B2, “3,4-diaminobenzenesulfonamide derivatives for inhibiting cell death” (VIB VZW, priority 2014, dated 2018):

Test system: IMR-32 neuroblastoma cell line
Test: Inhibition of erastin-induced ferroptosis in IMR-32 cells (Sytox Green cell death readout)
Type: cell-based
Conditions: Homo sapiens; inhibiting ferroptosis in the IMR-32 neuroblastoma cell line stimulated with 10 μM erastin; compounds 1 nM to 1 μM, triplicate
Protocol: In the present disclosure, the potency of a compound inhibiting (or reducing) ferroptosis and/or oxytosis are determined in in vitro or in vivo assays. Typically in vitro assays are used to measure the potency of a candidate compound. Examples of suitable in vitro assays are cellular assays. One non-limiting example of an assay involves the use of the IMR-32 neuroblastoma cell line. The latter is stimulated to enter into ferroptosis upon stimulation with 10 μM erastin, a documented ferroptosis inducer (see, for example, Dixon et al. (2012) Cell 149, 1060-1072, and ferroptosis inhibitors are evaluated for the prevention of erastin-induced ferroptosis. Yet another assay is based the glutamate-induced cell death in the hippocampal cell line HT22 and ferroptosis/oxytosis inhibitors are evaluated for the prevention of cell death (see N. Henke et al. (2013) Cell Death and Disease 4, e470). Still another assay is based on the sorafinib-induced cell death (described to be iron dependent cell death) in hepatocellular carcinoma cells and ferroptosis inhibitors are evaluated for the prevention of cell death (see C. Louandre et al. (2013) Int. J. Cancer 133, 1732). The calculated potency of a compound inhibiting ferroptosis and/or oxytosis is typically depicted as an IC50 value. Examples of suitable in vivo assays are typically pre-clinical disease models of, for example, mice for the diseases benefiting the application of ferroptosis and/or oxytosis inhibitors, as described herein. One non-limiting example of an in vivo assay is based on inducing liver damage in mice by administering the herbicide diquat dibromide monohydrate and ferroptosis inhibitors are evaluated based on reduced levels of liver transaminases in serum (see Q. Ran et al. (2004) J. Biol. Chem. 279, 53, 55137).
The IC50 values for the individual compounds of the disclosure were determined in the neuroblastoma, IMR-32 cell line. In brief, IMR-32 cells were subjected to 10 μM erastin, the latter compound is known to induce ferroptosis. A concentration gradient (ranging from 1 nM to 1 μM) of the compounds was applied to the cells. These experiments were performed in a 96-well format (in triplicate), and cell death was analyzed in a fluorescent plate reader by use of a fluorescent cell death dye (1.5 μM Sytox Green). The IC50 values depicted in Table 1 are the concentration values for the individual compounds which are able to overcome ferroptosis.

| Structure (SMILES) | IC50 [nM] |
| --- | --- |
| CCNS(=O)(=O)c1ccc(NC2CC2)c(NCc2ccccc2)c1 [Compound 33, 3-(benzylamino)-4-(cyclopropylamino)-N-ethylbenzenesulfonamide] | 61 |
| CNS(=O)(=O)c1ccc(NC2CCCCC2)c(NCc2ccncc2)c1 [Compound 48, 4-(cyclohexylamino)-N-methyl-3-((pyridin-4-ylmethyl)amino)benzenesulfonamide] | 15 |
| CCNS(=O)(=O)c1ccc(NC2CC3CCC2C3)c(N)c1 (centres unmarked) [Compound 23, 3-amino-4-(bicyclo[2.2.1]heptan-2-ylamino)-N-ethylbenzenesulfonamide] | 28 |
| CC(C)(C)NS(=O)(=O)c1ccc(NC2CCCCC2)c(N)c1 [Compound 28, 3-amino-N-(tert-butyl)-4-(cyclohexylamino)benzenesulfonamide] | 27 |
| CCNS(=O)(=O)c1ccc(NC2C3CC4CC(C3)CC2C4)c(N)c1 (centres unmarked) [Compound 25, 4-(adamantan-2-ylamino)-3-amino-N-ethylbenzenesulfonamide] | 17 |
| CNS(=O)(=O)c1ccc(NC2CCCCC2)c(NCc2ccccc2)c1 [Compound 47, 3-(benzylamino)-4-(cyclohexylamino)-N-methylbenzenesulfonamide] | 3.7 |
| CCNS(=O)(=O)c1ccc(NC2CCCC2)c(N)c1 [Compound 21, 3-amino-4-(cyclopentylamino)-N-ethylbenzenesulfonamide] | 82 |
| CCNS(=O)(=O)c1ccc(NC2CC3CCC2C3)c(NCc2ccncc2)c1 (centres unmarked) [Compound 41, 4-(bicyclo[2.2.1]heptan-2-ylamino)-N-ethyl-3-((pyridin-4-ylmethyl)amino) benzenesulfonamide] | 9.4 |
| CNS(=O)(=O)c1ccc(NC2CCCCC2)c(N)c1 [Compound 26, 3-amino-4-(cyclohexylamino)-N-methylbenzenesulfonamide] | 76 |
| CC(C)(C)NS(=O)(=O)c1ccc(NC2C3CC4CC(C3)CC2C4)c(NCc2ccccc2)c1 (centres unmarked) [Compound 53, 4-(adamantan-2-ylamino)-3-(benzylamino)-N-(tert-butyl)benzenesulfonamide] | 3.4 |
| CC(C)(C)NS(=O)(=O)c1ccc(NC2CCCCC2)c(NCc2ccccc2)c1 [Compound 51, 3-(benzylamino)-N-(tert-butyl)-4-(cyclohexylamino)benzenesulfonamide] | 6.2 |
| CCNS(=O)(=O)c1ccc(NC2CC3CCC2C3)c(NCc2ccccc2)c1 (centres unmarked) [Compound 40, 3-(benzylamino)-4-(bicyclo[2.2.1]heptan-2-ylamino)-N-ethylbenzenesulfonamide] | 3 |
| CCNS(=O)(=O)c1ccc(NC2CC2)c(NCc2ccncc2)c1 [Compound 34, 4-(cyclopropylamino)-N-ethyl-3-((pyridin-4-ylmethyl)amino)benzenesulfonamide] | 128 |
| CCNS(=O)(=O)c1ccc(NC2CCCC2)c(NCc2ccncc2)c1 [Compound 36, 4-(cyclopentylamino)-N-ethyl-3-((pyridin-4-ylmethyl)amino)benzenesulfonamide] | 36 |
| CCNS(=O)(=O)c1ccc(NC2CCCCC2)c(NCc2ccncc2)c1 [Compound 38, 4-(cyclohexylamino)-N-ethyl-3-((pyridin-4-ylmethyl)amino)benzenesulfonamide] | 23 |
| CCNS(=O)(=O)c1ccc(NC2C3CC4CC(C3)CC2C4)c(NCc2cncnc2)c1 (centres unmarked) [Compound 46, 4-(adamantan-2-ylamino)-N-ethyl-3-((pyrimidin-5-ylmethyl)amino)benzenesulfonamide] | 47 |
| CCNS(=O)(=O)c1ccc(NC2CCCCCCC2)c(N)c1 [Compound 24, 3-amino-4-(cyclooctylamino)-N-ethylbenzenesulfonamide] | 9.3 |
| CC(C)(C)NS(=O)(=O)c1ccc(NC2C3CC4CC(C3)CC2C4)c(N)c1 (centres unmarked) [Compound 29, 3-amino-N-(tert-butyl)-4-(adamantan-2-ylamine)benzenesulfonamide] | 6 |
| CCNS(=O)(=O)c1ccc(NC2CCCCCCC2)c(NCc2ccncc2)c1 [Compound 43, 4-(cyclooctylamino)-N-ethyl-3-((pyridin-4-ylmethyl)amino)benzenesulfonamide] | 22 |
| CC(C)(C)NS(=O)(=O)c1ccc(NC2C3CC4CC(C3)CC2C4)c(NCc2ccncc2)c1 (centres unmarked) [Compound 54, 4-(adamantan-2-ylamino)-N-(tert-butyl)-3-((pyridin-4-ylmethyl)amino)benzenesulfonamide] | 5.2 |
| CC(C)(C)OCCNS(=O)(=O)c1ccc(NC2CCCCC2)c(NCc2ccccc2)c1 [Compound 55, 3-(benzylamino)-N-(2-(tert-butoxy)ethyl)-4-(cyclohexylamino)benzenesulfonamide] | 22 |
| CCNS(=O)(=O)c1ccc(NC2CC2)c(N)c1 [Compound 20, 3-amino-4-(cyclopropylamino)-N-ethylbenzenesulfonamide] | 76 |
| CC(C)(C)NS(=O)(=O)c1ccc(NC2CCCCC2)c(NCc2ccncc2)c1 [Compound 52, N-(tert-butyl)-4-(cyclohexylamino)-3-((pyridin-4-ylmethyl)amino)benzenesulfonamide] | 11 |
| CC(C)(C)OCCNS(=O)(=O)c1ccc(NC2CCCCC2)c(N)c1 [Compound 30, 3-amino-N-(2-(tert-butoxy)ethyl)-4-(cyclohexylamino)benzenesulfonamide] | 132 |
| CNS(=O)(=O)c1ccc(NC2C3CC4CC(C3)CC2C4)c(NCc2ccccc2)c1 (centres unmarked) [Compound 49, 4-(adamantan-2-ylamino)-3-(benzylamino)-N-methylbenzenesulfonamide] | 4.9 |
| CCNS(=O)(=O)c1ccc(NC2CCCCCCC2)c(NCc2ccccc2)c1 [Compound 42, 3-(benzylamino)-4-(cyclooctylamino)-N-ethylbenzenesulfonamide] | 2.4 |
| CNS(=O)(=O)c1ccc(NC2C3CC4CC(C3)CC2C4)c(N)c1 (centres unmarked) [Compound 27, 3-amino-4-(adamantan-2-ylamine)-N-methylbenzenesulfonamide] | 11 |
| CNS(=O)(=O)c1ccc(NC2C3CC4CC(C3)CC2C4)c(NCc2ccncc2)c1 (centres unmarked) [Compound 50, 4-(adamantan-2-ylamino)-N-methyl-3-((pyridin-4-ylmethyl)amino)benzenesulfonamide] | 6.4 |
| CCNS(=O)(=O)c1ccc(NC2CCCC2)c(NCc2ccccc2)c1 [Compound 35, 3-(benzylamino)-4-(cyclopentylamino)-N-ethylbenzenesulfonamide] | 8.2 |
